Measured values published in patent US12369583B2, “Nematicidal compositions” (SYNGENTA CROP PROTECTION AG, priority 2018, dated 2025).

Tests used:
[1] = test system: Reniform Nematode (Rotylenchulus reniformis); assay: Reniform Nematode efficacy on soybean, soil nematode count compared to check; assay type: in vivo
[2] = test system: Soybean Cyst Nematode (Heterodera glycines) eggs; assay: Evaluation of Soybean Cyst Nematode egg hatch; assay type: cell-based
[3] = test system: Root Knot Nematode (Meloidogyne incognita) eggs; assay: Evaluation of Root Knot Nematode egg hatch; assay type: cell-based
[4] = test system: Soybean Cyst Nematode (Heterodera glycines); assay: Control of Heterodera glycines on soybean in a greenhouse, seed treatment; assay type: in vivo
Source text: Methodology for evaluating control of Heterodera glycines at all life stages on soybean in a greenhouse.
Five thousand Heterodera glycine eggs where placed in a 1 inch hole in the center of 3.5 inch×8 inch deep plastic pots. The seeds were inoculated first when applying the active compound as a seed treatment. The treated seed was placed in the center hole and covered up with sterilized top soil. Each pot was watered by hand, with approximately 50 mls of water applied to each pot once per day. 35 day after planting, the soil was gently rinsed from the roots of the emerged plants and place in a 20 mesh over a 60-mesh sieve. The root system was blasted with water to remove mature females. The 20-mesh sieve removed. The females were washed to the bottom of the 60-mesh sieve and rinsed into a tube for counting under a stereoscope. For root penetration experiments, the roots of the plants were removed from the pots at 7-14 days after planting, rinsed clean of soil, and stained with acid fuchsin stain. Stained nematodes in the roots were counted using an electronic stereoscope.
The action of pydiflumetofen against soybean syst nematode (SCN; Heterodera glycines) and its effect on soybean plants was assessed out as described previously, and compared to that of fluopyram. The number of SCN per stained root was counted, and the mean root weight per plant calculated, thus enabling the number of SCN per gram of root to be calculated.

[5] = test system: Soybean Cyst Nematode (Heterodera glycines) on Soybean; assay: Soybean yield data, seed treatment (trials 4-6); assay type: in vivo
[6] = test system: Lesion Nematode (Pratylenchus Spp.); assay: Lesion Nematode control in corn, stained root tissue; assay type: in vivo
Source text: Corn root tissue was stained using acid fuchsin/methyl blue to assess for endoparasitic, endo/ectoparasitic, and semi endoparasitic nematodes that have entered the root system, using standard methodology. The effect of pydiflumetofen was compared to fluopyram.

[7] = test system: Root Knot Nematode (Meloidogyne incognita); assay: Root Knot Nematode control on soybean, gall count and rating; assay type: in vivo
Source text: Root Knot Nematode (Meloidogyne incognita) Methodology for Evaluating Root Knot Nematode Gall Count and Rating Process The roots of the plants were removed from the soil. The root system was then sprayed with water to remove remaining soil. The roots were spread out on a tray or counter top and the rate of galling or place each root system under a magnification light and count galls. For gall assessment ratings, a rating on a scale of 0-10 scale was given when compared against a standard gall rating chart. Gall count was also assessed.

[8] = test system: Root Knot (Meloidogyne incognita); assay: Multiple nematode species on cotton, soil counts: Root Knot; assay type: in vivo; conditions: 0.15 mg ai/seed, measured 71 days after planting
[9] = test system: Spiral (Helicotylenchus Spp.); assay: Multiple nematode species on cotton, soil counts: Spiral; assay type: in vivo; conditions: 0.15 mg ai/seed, measured 71 days after planting
[10] = test system: Reniform Nematode (Rotylenchulus reniformis); assay: Multiple nematode species on cotton, soil counts: Reniform; assay type: in vivo; conditions: 0.15 mg ai/seed, measured 71 days after planting
[11] = test system: Lesion Nematode (Pratylenchus brachyurus); assay: Lesion Nematode efficacy on soybean, stained roots; assay type: in vivo
Source text: Soybean plant roots were stained using acid fuchsin/methyl blue to assess for endoparasitic, endo/ectoparasitic, and semi endoparasitic nematodes that have entered the root system, using standard methodology.

Lance (Hoplolaimus Spp.) = assay: In vitro dose response assay against Lance nematode; assay type: cell-based
Source text: (§1) Lance (Hoplolaimus Spp.) and Sting (Belonolaimus longicaudatus) Nematode In Vitro Assay Measuring Dose Response of APN Against Sting and Lance Nematode.

[12] = test system: Sting (Belonolaimus longicaudatus); assay: In vitro dose response assay against Sting nematode; assay type: cell-based
Source text: as §1

[13] = Series 2 Trial 1, 0.075 mg ai/seed
[14] = Series 2 Trial 1, 0.15 mg ai/seed
[15] = Series 2 Trial 1, 0.30 mg ai/seed
[16] = Series 1 Trial 1, 0.0375 mg ai/seed
[17] = Series 1 Trial 1, 0.075 mg ai/seed
[18] = Series 1 Trial 1, 0.15 mg ai/seed
[19] = Series 1 Trial 2, 0.075 mg ai/seed
[20] = Series 1 Trial 2, 0.15 mg ai/seed
[21] = Sodium hypochlorite 30%, no ppm concentration printed

CNC(=O)O/N=C/C(C)(C)SC [Aldicarb]
Nematode Reduction Compared to Check (mean difference in soil nematode count) ([1]; in-furrow (5.6 Kg/Ha)): −1937

O=S(=O)(CCC(F)=C(F)F)c1ncc(Cl)s1 [Fluensulfone]
Percent Egg Hatch Reduction ([2]; 1 ppm): −2.1%
Percent Egg Hatch Reduction ([2]; 10 ppm): −1.5%
Percent Egg Hatch Reduction ([2]; 100 ppm): 0.5%
Percent Egg Hatch Reduction ([3]; 1 ppm): −3.5%
Percent Egg Hatch Reduction ([3]; 10 ppm): −0.9%
Percent Egg Hatch Reduction ([3]; 100 ppm): 48.8%

O=C(NCCc1ncc(C(F)(F)F)cc1Cl)c1ccccc1C(F)(F)F [Fluopyram, reference compound]
Mean SCN/root [4, 13]: 20.8
No. SCN/g root tissue [4, 13]: 12.1
Mean SCN/root [4, 14]: 17.7
No. SCN/g root tissue [4, 14]: 30.3
Mean SCN/root [4, 15]: 7.3
No. SCN/g root tissue [4, 15]: 23.4
Mean Difference in Yield Compared to Checks ([5]; Trial 4, 0.15 mg ai/seed): −3.5 Bu/Ac
Mean Difference in Yield Compared to Checks ([5]; Trial 5, 0.15 mg ai/seed): +5.4 Bu/Ac
Mean Difference in Yield Compared to Checks ([5]; Trial 6, 0.15 mg ai/seed): +2.9 Bu/Ac
Percent Egg Hatch Reduction ([2]; 1 ppm): −1.3%
Percent Egg Hatch Reduction ([2]; 10 ppm): 4.5%
Percent Egg Hatch Reduction ([2]; 100 ppm): 61.9%
Percent Egg Hatch Reduction ([3]; 1 ppm): 1.1%
Percent Egg Hatch Reduction ([3]; 10 ppm): 55.9%
Percent Egg Hatch Reduction ([3]; 100 ppm): 54.7%
Nematode Reduction Compared to Check (mean difference in soil nematode count) ([1]; 0.15 mg/seed): −3146
Lesion Nematode per gram of Root ([6]; 0.25 mg ai/seed): 211
Lesion Nematodes within root system ([6]; 0.25 mg ai/seed): 108

CON(C(=O)c1cn(C)nc1C(F)F)C(C)Cc1c(Cl)cc(Cl)cc1Cl (centres unmarked) [Pydiflumetofen, 3-(difluoromethyl)-N-methoxy-1-methyl-N-[1-methyl-2-(2,4,6-trichloro-phenyl)ethyl]-1H-pyrazole-4-carboxamide]
Cysts per Gram of Root [4, 16]: 147.9
Mature SCN Cysts [4, 16]: 24.0
Stained Juveniles w/l root [4, 16]: 22.5
Cysts per Gram of Root [4, 17]: 167.5
Mature SCN Cysts [4, 17]: 21.3
Stained Juveniles w/l root [4, 17]: 19.0
Cysts per Gram of Root [4, 18]: 105.0
Mature SCN Cysts [4, 18]: 16.3
Stained Juveniles w/l root [4, 18]: 12.5
SCN Within Root [4, 19]: 17.5
Soybean Cyst Nematodes per Gram of Root [4, 19]: 128
SCN Within Root [4, 20]: 5.0
Soybean Cyst Nematodes per Gram of Root [4, 20]: 29.6
SCN Cysts per Root ([4]; Series 1 Trial 3, 0.15 mg ai/seed): 10.4
SCN Cysts per Root ([4]; Series 1 Trial 3, 0.30 mg ai/seed): 5.5
Mean SCN/root [4, 13]: 52.3
No. SCN/g root tissue [4, 13]: 30.4
Mean SCN/root [4, 14]: 37.0
No. SCN/g root tissue [4, 14]: 16.9
Mean SCN/root [4, 15]: 35.2
No. SCN/g root tissue [4, 15]: 15.2
Mean Difference in Yield Compared to Checks ([5]; Trial 4, 0.075 mg ai/seed): +3.0 Bu/Ac
Mean Difference in Yield Compared to Checks ([5]; Trial 5, 0.075 mg ai/seed): +3.7 Bu/Ac
Mean Difference in Yield Compared to Checks ([5]; Trial 6, 0.075 mg ai/seed): +7.5 Bu/Ac
Percent Egg Hatch Reduction ([2]; 1 ppm): 4.7%
Percent Egg Hatch Reduction ([2]; 10 ppm): 34.7%
Percent Egg Hatch Reduction ([2]; 100 ppm): 64.0%
Root Knot Nematode Galling (0-10 scale) ([7]; 0.075 mg ai/seed): 6.8
Root Knot Nematode Galls per Root ([7]; 0.075 mg ai/seed): 52.6
Root Knot Nematode Galling (0-10 scale) ([7]; 0.15 mg ai/seed): 1.5
Root Knot Nematode Galls per Root ([7]; 0.15 mg ai/seed): 11.2
Juveniles per 100 cc s Soil [8]: 132
Juveniles per 100 cc s Soil [9]: 254
Juveniles per 100 cc s Soil ([10]; Reniform (adult)): 2.8
Juveniles per 100 cc s Soil ([10]; Reniform (juvenile)): 1752
Percent Egg Hatch Reduction ([3]; 1 ppm): 1.7%
Percent Egg Hatch Reduction ([3]; 10 ppm): 12.8%
Percent Egg Hatch Reduction ([3]; 100 ppm): 30.6%
Lesion Nematode per gram of Root ([11]; 0.0375 mg ai/seed): 164.3
Lesion Nematodes w/l root ([11]; 0.0375 mg ai/seed): 44.9
Lesion Nematode per gram of Root ([11]; 0.075 mg ai/seed): 141.5
Lesion Nematodes w/l root ([11]; 0.075 mg ai/seed): 38.3
Lesion Nematode per gram of Root ([11]; 0.15 mg ai/seed): 105.3
Lesion Nematodes w/l root ([11]; 0.15 mg ai/seed): 32.3
Nematode Reduction Compared to Check (mean difference in soil nematode count) ([1]; 0.075 mg/seed): −2912
Percentage of Dead Nematodes (Lance (Hoplolaimus Spp.); exposure 1 hours, 0.1 ppm): 12.7 Percentage
Percentage of Dead Nematodes (Lance (Hoplolaimus Spp.); exposure 1 hours, 10 ppm): 37.9 Percentage
Percentage of Dead Nematodes (Lance (Hoplolaimus Spp.); exposure 1 hours, 100 ppm): 74.8 Percentage
Percentage of Dead Nematodes (Lance (Hoplolaimus Spp.); exposure 24 hours, 0.1 ppm): 68.5 Percentage
Percentage of Dead Nematodes (Lance (Hoplolaimus Spp.); exposure 24 hours, 10 ppm): 81.6 Percentage
Percentage of Dead Nematodes (Lance (Hoplolaimus Spp.); exposure 24 hours, 100 ppm): 23.9 Percentage
Percentage of Dead Nematodes (Lance (Hoplolaimus Spp.); exposure 48 hours, 0.1 ppm): 41 d Percentage
Percentage of Dead Nematodes (Lance (Hoplolaimus Spp.); exposure 48 hours, 10 ppm): 93.8 Percentage
Percentage of Dead Nematodes (Lance (Hoplolaimus Spp.); exposure 48 hours, 100 ppm): 74.8 Percentage
Percentage of Dead Nematodes (Lance (Hoplolaimus Spp.); exposure 72 hours, 0.1 ppm): 32.9 Percentage
Percentage of Dead Nematodes (Lance (Hoplolaimus Spp.); exposure 72 hours, 10 ppm): 93.8 Percentage
Percentage of Dead Nematodes (Lance (Hoplolaimus Spp.); exposure 72 hours, 100 ppm): 77.5 Percentage
Percentage of Dead Nematodes ([12]; exposure 1 hours, 0.1 ppm): 6.3 Percentage
Percentage of Dead Nematodes ([12]; exposure 1 hours, 10 ppm): 5.9 Percentage
Percentage of Dead Nematodes ([12]; exposure 1 hours, 100 ppm): 11.3 Percentage
Percentage of Dead Nematodes ([12]; exposure 24 hours, 0.1 ppm): 4.7 Percentage
Percentage of Dead Nematodes ([12]; exposure 24 hours, 10 ppm): 59.5 Percentage
Percentage of Dead Nematodes ([12]; exposure 24 hours, 100 ppm): 42.9 Percentage
Percentage of Dead Nematodes ([12]; exposure 48 hours, 0.1 ppm): 29.3 Percentage
Percentage of Dead Nematodes ([12]; exposure 48 hours, 10 ppm): 56.3 Percentage
Percentage of Dead Nematodes ([12]; exposure 48 hours, 100 ppm): 58 Percentage
Percentage of Dead Nematodes ([12]; exposure 72 hours, 0.1 ppm): 34.9 Percentage
Percentage of Dead Nematodes ([12]; exposure 72 hours, 10 ppm): 81.1 Percentage
Percentage of Dead Nematodes ([12]; exposure 72 hours, 100 ppm): 97.1 Percentage
Effect on nematode numbers (in words) [6]: reduce nematode numbers
Lesion Nematode per gram of Root ([6]; 0.4 mg ai/seed): 389
Lesion Nematodes within root system ([6]; 0.4 mg ai/seed): 302
Lesion Nematode per gram of Root ([6]; 0.5 mg ai/seed): 105
Lesion Nematodes within root system ([6]; 0.5 mg ai/seed): 124

OCl [Sodium hypochlorite 30%, Sodium hypochlorite]
Percent Egg Hatch Reduction [2, 21]: 100.0%
Percent Egg Hatch Reduction [3, 21]: 100.0%

c1ccc(-c2noc(-c3cccs3)n2)cc1 [Tioxazafen]
Percent Egg Hatch Reduction ([2]; 1 ppm): 0.4%
Percent Egg Hatch Reduction ([2]; 10 ppm): −0.5%
Percent Egg Hatch Reduction ([2]; 100 ppm): −0.9%
Percent Egg Hatch Reduction ([3]; 1 ppm): −1.9%
Percent Egg Hatch Reduction ([3]; 10 ppm): −0.8%
Percent Egg Hatch Reduction ([3]; 100 ppm): 4.4%
